A short description of series [1]: Tissue distribution in rats after oral SZ–A. The series is classed as in vivo. As to conditions: Sprague-Dawley, pancreas, rat, SZ–A 40 mg/kg p.o., 0.25, 0.5 and 2 h, n = 3, read-out: tissue to plasma ratio (T/P) in the pancreas. As for the experimental part: Three groups of rats (three rats in each group) were administered with a single oral dose of SZ–A at 40 mg/kg. Rats each were sacrificed and various tissues, including liver, kidney, pancreas, stomach, duodenum, jejunum, ileum, cecum, colon, and the content in the gastrointestinal tract were collected at 0.25, 0.5, and 2 h time points. One additional rat was sacrificed predose to provide control tissues for analysis. After removing blood or content and weighing, each sample was individually homogenized with normal saline solution (1:3, w/v for tissue; 1:9, w/v for content) using a tissue homogenizer (Polytron PT1600E, Kinematica, Luzern, Switzerland) and stored at −20 °C until LC-MS/MS analysis.

A short description of series [2]: Excretion into urine, feces and bile in rats after oral SZ–A. The format is in vivo. The conditions noted are these: rat, SZ–A 40 mg/kg p.o.; for dose excreted: bile, po, within 32 h, read-out: recovery in bile (% of dose); for cumulative excretion into urine (% of dose) / cumulative excretion into feces (% of dose): over a 24 h period, n = 5. The method, then:
Five rats were kept in the metabolic cages with free access to water and food 2 h post dose. Urine was collected before dosing and at 0–4, 4–8, 8–24, 24–36, and 36–48 h, and feces was simultaneously collected before dosing and at 0–24, 24–36, and 36–48 h after oral dosing of SZ–A (40 mg/kg). Feces samples were dried and grinded into powder, then homogenized with normal saline solution (1:9, w/v). Additionally, the bile duct of rats under ether anesthesia were cannulated with a PE-10 tube (Portex Ltd., Kent, UK). Bile was collected before dosing and at 0–1, 1–2, 2–4, 4–6, 6–10, 10–20, 20–24, 24–28, and 28–32 h following oral administration of SZ–A (40 mg/kg). All urine, feces, and bile samples were stored at −20 °C until LC-MS/MS analysis.

Series [3] can be described thus: In vitro incubation of SZ–A with rat intestinal homogenate. As to conditions: SZ–A 10.87 μg/mL, with/without NADPH generation, 37 °C, 120 min. The format is in vitro ADME. As for the experimental part:
(§1) Pooled rat intestinal homogenate from six males was prepared using a tissue homogenizer with ice cold normal saline solution at a proportion of 1:3 (w/v). SZ–A was incubated with rat intestinal homogenate (5 mg protein/mL) with/without a NADPH-generating system (0.011 M β-NADP, 0.1 M glucose 6-phosphate, 10 U/mL glucose-6-phosphate dehydrogenase) in a 37 °C water bath for 120 min. Meanwhile, caecal content was collected and mixed with anaerobic medium (1:30, w/v) to prepare the cultures under nitrogen atmosphere at 37 °C for 120 min. SZ–A and rat caecal microbiota cultures were incubated at a total volume of 200 μL with the boiled samples as the negative control, concomitantly. The incubation was stopped at 2 h by adding two volumes of methanol–acetonitrile (1:3, v/v). Triplicate supernatants were taken by centrifugation at 18,880× g for 5 min and stored at −20 °C until LC-MS/MS analysis. The results were expressed as the percentage of the concentration at 0 min.

Series [4] relates to rat caecal microbiota cultures. The series can be described thus: In vitro incubation of SZ–A with rat caecal microbiota cultures. The format is in vitro ADME. As to conditions: 2 h. The method, then: as §1
Where [5] appears, read: 4.35 μg/mL SZ–A (10 μM DNJ, 1.9 μM FGM, 1.6 μM DAB).
[6] abbreviates: 10.87 μg/mL SZ–A (25 μM DNJ, 4.7 μM FGM, 3.9 μM DAB).

Structures are written as SMILES. “And” between values parts separate entries of the source, which are not always exact repeats. Identical values can stand only once.

For `OC[C@H]1NCC[C@@H](O)[C@@H]1O` [FGM, fagomine], the Kp in series [1] lay in the range of 0.18 to 1.13. Further, in series [2], the dose excreted was 0.5%; the “total excretive amount (urine and feces) relative to the oral dose” value is “about two-fold”; the “cumulative excretion into urine (% of dose)” value amounted to 65.36%. Besides, the “cumulative excretion into feces (% of dose)” value in series [2] (40 mg/kg) is 131.4% and 131.41%. Moreover, the “amount of alkaloid after incubation in rat intestinal homogenate” value (“amount of alkaloid after incubation” below) in series [3] is “not changed significantly”. Further, the “percentage of initial amount after incubation with rat gut microbiota cultures” value (“percentage of initial amount” for short) in series [4] (setting [5]) worked out at 152.8%. Further, the “percentage of initial amount” value in series [4] (setting [6]) was 172.0%.
As for `OC[C@H]1NC[C@@H](O)[C@@H]1O` [DAB, 1,4-dideoxy-1,4-imino-D-arabinitol], the Kp in series [1] is 0.09 to 0.59. For the same compound, in series [2], the dose excreted was 0.35%, the “cumulative excretion into feces (% of dose)” value was 34.05% and the “cumulative excretion into urine (% of dose)” value is 52.91%. For the same compound, the “amount of alkaloid after incubation” value in series [3] was “not changed significantly”. In series [4] (setting [5]), the “percentage of initial amount” value was determined as 182.2%. For the same compound, the “percentage of initial amount” value in series [4] (setting [6]) is reported as 159.3%.
Turning to `OC[C@H]1NC[C@H](O)[C@@H](O)[C@@H]1O` [DNJ, 1-deoxynojirimycin], the Kp in series [1] lay in the range of 0.06 to 0.47. Also, in series [2], the dose excreted was 0.29%, the “cumulative excretion into feces (% of dose)” value was found to be 43.97% and the “cumulative excretion into urine (% of dose)” value turned out to be 65.32%. Also, the “amount of alkaloid after incubation” value in series [3] is reported as “not changed significantly”. In addition, in series [4] (setting [5]), the “percentage of initial amount” value stood at 110.6%. Besides, the “percentage of initial amount” value in series [4] (setting [6]) is given as 115.5%.
